# Reference: PubChem BioAssay AID2060604 (Molecular Pharmacology Branch, DTP, NCI, 2025)
# Test system: 379773-124-R-J2-PDC complex spheroids, viability % test/control
# Assay: Anticancer human tumor 379773-124-R-J2-PDC patient-derived endometrial carcinoma cell line growth inhibition [CLK]
# Settings: for IC50: curve of first compound; for viability, T/C: stronger effect = lower value
# Excerpt: A high-throughput screen of multi-cell type tumor spheroids was designed to identify active combinations of […] and targeted small molecules. Complex spheroids include a stromal component modeled by human endothelial cells (HUVEC) and fibroblasts modeled by human mesenchymal stem cells (MSCs). The concentration ranges selected for each drug and investigational agent were based upon clinically achievable concentrations if the clinical Cmax of the agent was known.
# Compounds. The drugs and investigational agents: cirtuvivint (SM08502; NSC835563), CC-671 (NSC850746), vemurafenib (NSC761431), tapotoclax (NSC804041), sotorasib (NSC818433), adagrasib (NSC831453), MRTX-1133 (NSC836407), BAY2416964 (NSC825713), copanlisib (NSC816437), inavolisib (NSC800729), abemaciclib (NSC768073), osimertinib (NSC779217), entinostat (NSC756642), eltanexor (KPT-8602, NSC794443), venetoclax (NSC766270), ceralasertib (NSC777638), bortezomib (NSC756655), olaparib (NSC753686), talazoparib (NSC767125), alisertib (NSC759677), peposertib (NSC802822), gemcitabine (NSC613327), 5-fluorouracil (NSC19893), SN-38 (NSC673596), oxaliplatin (NSC266046), paclitaxel (NSC125973), and doxorubicin (NSC123127), were obtained from the National Cancer Institute (NCI) Developmental Therapeutics Program Chemical Repository. The FDA-approved anticancer drug set is available from the Developmental Therapeutics Program at https://dtp.cancer.gov/organization/dscb/obtaining/available plates.htm. […] The stock solutions were prepared in dimethyl sulfoxide (DMSO, Sigma-Aldrich, St. Louis, MO, cat. D2650), except for the platinum complexes which were prepared in saline (Quality Biological, Gaithersburg, MD, cat. 114-055-101), at 800-fold the tested concentration and stored at -70 degrees C prior to their use. All drugs and investigational agents were tested over a range starting from a high concentration at or near the clinical Cmax and decreasing in half-log increments. If the clinical Cmax for an agent had not been determined, the highest concentration tested was 10 microM.
# Cell Culture. All cells were maintained in an incubator at 37 degrees C and 5% CO2 with 95% humidity. The PDC lines were cultured according to standard operating procedures established by the NCI PDMR. Briefly, all PDCs were thawed and cultured in Matrigel-coated flasks prepared with a working solution of 1X Ham's F-12 nutrient mix, without supplementation (Invitrogen, Waltham, MA, cat. 11765054), 100 U/mL penicillin-streptomycin (Invitrogen, cat. 15140122), and 2.5% Matrigel (Corning Inc., Corning, NY, cat. 354248) for the first three passages. The 947758-054-R-J2-PDC line was cultured in 6B/Colon 1A media, which includes advanced DMEM/F-12 (Thermo Fisher Scientific, cat. 12634028), 10 mM HEPES (Thermo Fisher Scientific, cat. 15630080), 1X GlutaMAX supplement (Thermo Fisher Scientific, cat. 35050061), 0.1 mg/mL primocin (InvivoGen, cat. ant-pm-2), 10% defined fetal bovine serum, heat inactivated (HyClone Laboratories Inc., cat. SH30070.03HI), 1.25 mM N-Acetyl-L-cysteine (Sigma-Aldrich, cat. A9165), 10 mM nicotinamide (Sigma-Aldrich, cat. N0636), 1X B-27 supplement (Thermo Fisher Scientific, cat. 17504044), 1X N-2 supplement (Thermo Fisher Scientific, cat. 17502048), and 10 microM Y-27632 dihydrochloride (Tocris Bioscience, cat. 1254). The 876862-298-R-J1-PDC was cultured in 6E media, which includes all 6B/Colon 1A media components plus 50% L-WRN conditioned media (ATCC, cat. CRL-3276), 50 ng/mL recombinant human EGF recombinant protein (hEGF; Thermo Fisher Scientific, cat. PHG0311), 10 ng/mL recombinant human fibroblast growth factor 10 (hGFG-10; PeproTech, cat. 100-26), 1 ng/mL recombinant human fibroblast growth factor 2 (hFGF-2; PeproTech, cat. 100-18B), and 1 µM prostaglandin E2 (PGE2; Tocris, cat. 2296). The 227483-062-R1-J1-PDC line was cultured in Panc media, containing all 6E components except hFGF-2, with the addition of 500 nM SB-431542 (Selleckchem, cat. S1067) and 10 nM gastrin (Tocris, cat. 3006). […]
# 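Also: compound exposure lasted seven days before the viability readout.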
# 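For viability, T/C in this document: 100% = DMSO vehicle control wells.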
smiles,measurement,setting,value
COC1C=CCC(C)C(C)S(=O)(=O)NC(=O)c2ccc3c(c2)N(CC2CCC21)CC1(CCCc2cc(Cl)ccc21)CO3 (configuration not stated) + CN1CCN(c2cc(C(=O)Nc3cc4cc(-c5cnn(C)c5)ccc4cn3)ccn2)CC1,IC50,second compound 0.0316 µM,4970 nM
same,IC50,second compound 0.1 µM,4750 nM
same,IC50,second compound 0.316 µM,< 31.6 nM
same,IC50,second compound 1 µM,< 31.6 nM
same,IC50,second compound 3.16 µM,< 31.6 nM
same,IC50,second compound 10 µM,< 31.6 nM
same,"viability, T/C","second compound 0.0316 µM, first compound 0.0316 µM",87.2%
same,"viability, T/C","second compound 0.0316 µM, first compound 0.1 µM",97.5%
same,"viability, T/C","second compound 0.0316 µM, first compound 0.316 µM",74.6%
same,"viability, T/C","second compound 0.0316 µM, first compound 1 µM",86%
same,"viability, T/C","second compound 0.0316 µM, first compound 3.16 µM",79.7%
same,"viability, T/C","second compound 0.0316 µM, first compound 10 µM",4.02%
same,"viability, T/C","second compound 0.1 µM, first compound 0.0316 µM",77.2%
same,"viability, T/C","second compound 0.1 µM, first compound 0.1 µM",73.5%
same,"viability, T/C","second compound 0.1 µM, first compound 0.316 µM",78.7%
same,"viability, T/C","second compound 0.1 µM, first compound 1 µM",78.2%
same,"viability, T/C","second compound 0.1 µM, first compound 3.16 µM",76%
same,"viability, T/C","second compound 0.1 µM, first compound 10 µM",2.54%
same,"viability, T/C","second compound 0.316 µM, first compound 0.0316 µM",24.8%
same,"viability, T/C","second compound 0.316 µM, first compound 0.1 µM",29.9%
same,"viability, T/C","second compound 0.316 µM, first compound 0.316 µM",30.9%
same,"viability, T/C","second compound 0.316 µM, first compound 1 µM",26.5%
same,"viability, T/C","second compound 0.316 µM, first compound 3.16 µM",29.6%
same,"viability, T/C","second compound 0.316 µM, first compound 10 µM",1.06%
same,"viability, T/C","second compound 1 µM, first compound 0.0316 µM",0.39%
same,"viability, T/C","second compound 1 µM, first compound 0.1 µM",0.17%
same,"viability, T/C","second compound 1 µM, first compound 0.316 µM",0.35%
same,"viability, T/C","second compound 1 µM, first compound 1 µM",0.18%
same,"viability, T/C","second compound 1 µM, first compound 3.16 µM",0.65%
same,"viability, T/C","second compound 1 µM, first compound 10 µM",0.11%
same,"viability, T/C","second compound 3.16 µM, first compound 0.0316 µM",0.12%
same,"viability, T/C","second compound 3.16 µM, first compound 0.1 µM",0.14%
same,"viability, T/C","second compound 3.16 µM, first compound 0.316 µM",1.19%
same,"viability, T/C","second compound 3.16 µM, first compound 1 µM",0.82%
same,"viability, T/C","second compound 3.16 µM, first compound 3.16 µM",0.11%
same,"viability, T/C","second compound 3.16 µM, first compound 10 µM",0.1%
same,"viability, T/C","second compound 10 µM, first compound 0.0316 µM",0.48%
same,"viability, T/C","second compound 10 µM, first compound 0.1 µM",0.72%
same,"viability, T/C","second compound 10 µM, first compound 0.316 µM",0.18%
same,"viability, T/C","second compound 10 µM, first compound 1 µM",1.21%
same,"viability, T/C","second compound 10 µM, first compound 3.16 µM",0.37%
same,"viability, T/C","second compound 10 µM, first compound 10 µM",0.23%
